Experimental data: patent publication US9988635B2, “Modulation of growth hormone receptor expression and insulin-like growth factor expression” (Antisense Therapeutics Limited, priority 2003, dated 2018)
In the oligonucleotide strings, read from the 5' end, every base follows the letter of its sugar. An asterisk marks phosphorothioate; unmarked linkages are phosphodiester. Other units and linkages are bracketed, terminal groups are in braces. A string of capitals states the bases alone. e = 2'-O-(2-methoxyethyl) (MOE); [5mC] = 5-methylcytosine; d = 2'-deoxy (DNA)

Tested on: human growth hormone receptor mRNA
Assay: Inhibition of human growth hormone receptor mRNA levels in MCF7 cells, quantitative real-time PCR
Assay type: cell-based
Parameters: concentration or dose not given beside the values
Conditions: averages from three experiments
Protocol: The human breast carcinoma cell line MCF-7 was obtained from the American Type Culture Collection (Manassas, Va.). MCF-7 cells were routinely cultured in DMEM low glucose (Gibco/Life Technologies, Gaithersburg, Md.) supplemented with 10% fetal calf serum (Gibco/Life Technologies, Gaithersburg, Md.). Cells were routinely passaged by trypsinization and dilution when they reached 90% confluence. Cells were seeded into 96-well plates (Falcon-Primaria #3872) at a density of 7000 cells/well for use in RT-PCR analysis.
When cells reached 65-75% confluency, they were treated with oligonucleotide. For cells grown in 96-well plates, wells were washed once with 100 μL OPTI-MEM™-1 reduced-serum medium (Invitrogen Corporation, Carlsbad, Calif.) and then treated with 130 μL of OPTI-MEM™-1 containing 3.75 μg/mL LIPOFECTIN™ (Invitrogen Corporation, Carlsbad, Calif.) and the desired concentration of oligonucleotide. Cells are treated and data are obtained in triplicate. After 4-7 hours of treatment at 37° C., the medium was replaced with fresh medium. Cells were harvested 16-24 hours after oligonucleotide treatment.
Total RNA was isolated using an RNEASY 96™ kit and buffers purchased from Qiagen Inc. (Valencia, Calif.) following the manufacturer's recommended procedures. Briefly, for cells grown on 96-well plates, growth medium was removed from the cells and each well was washed with 200 μL cold PBS. 150 μL Buffer RLT was added to each well and the plate vigorously agitated for 20 seconds. 150 μL of 70% ethanol was then added to each well and the contents mixed by pipetting three times up and down. The samples were then transferred to the RNEASY 96™ well plate attached to a QIAVAC™ manifold fitted with a waste collection tray and attached to a vacuum source. Vacuum was applied for 1 minute. 500 μL of Buffer RW1 was added to each well of the RNEASY 96™ plate and incubated for 15 minutes and the vacuum was again applied for 1 minute. An additional 500 μL of Buffer RW1 was added to each well of the RNEASY 96™ plate and the vacuum was applied for 2 minutes. 1 mL of Buffer RPE was then added to each well of the RNEASY 96™ plate and the vacuum applied for a period of 90 seconds. The Buffer RPE wash was then repeated and the vacuum was applied for an additional 3 minutes. The plate was then removed from the QIAVAC™ manifold and blotted dry on paper towels. The plate was then re-attached to the QIAVAC™ manifold fitted with a collection tube rack containing 1.2 mL collection tubes. RNA was then eluted by pipetting 140 μL of RNAse free water into each well, incubating 1 minute, and then applying the vacuum for 3 minutes.
Quantitation of growth hormone receptor mRNA levels was accomplished by real-time quantitative PCR using the ABI PRISM™ 7600, 7700, or 7900 Sequence Detection System (PE-Applied Biosystems, Foster City, Calif.) according to manufacturer's instructions. This is a closed-tube, non-gel-based, fluorescence detection system which allows high-throughput quantitation of polymerase chain reaction (PCR) products in real-time. As opposed to standard PCR in which amplification products are quantitated after the PCR is completed, products in real-time quantitative PCR are quantitated as they accumulate. This is accomplished by including in the PCR reaction an oligonucleotide probe that anneals specifically between the forward and reverse PCR primers, and contains two fluorescent dyes. A reporter dye (e.g., FAM or JOE, obtained from either PE-Applied Biosystems, Foster City, Calif., Operon Technologies Inc., Alameda, Calif. or Integrated DNA Technologies Inc., Coralville, Iowa) is attached to the 5′ end of the probe and a quencher dye (e.g., TAMRA, obtained from either PE-Applied Biosystems, Foster City, Calif., Operon Technologies Inc., Alameda, Calif. or Integrated DNA Technologies Inc., Coralville, Iowa) is attached to the 3′ end of the probe. When the probe and dyes are intact, reporter dye emission is quenched by the proximity of the 3′ quencher dye. […]

| Substance | % INHIB of human growth hormone receptor mRNA levels |
| --- | --- |
| 227452 (antisense eT*e[5mC]*eA*eG*eG*dG*d[5mC]*dA*dT*dT*d[5mC]*dT*dT*dT*d[5mC]*e[5mC]*eA*eT*eT*e[5mC]) [compound 227452] | 79% |
| 227453 (antisense e[5mC]*eA*eT*eA*eA*dT*d[5mC]*dA*dG*dG*dG*d[5mC]*dA*dT*dT*e[5mC]*eT*eT*eT*e[5mC]) [compound 227453] | 52% |
| 227464 (antisense e[5mC]*e[5mC]*eT*eT*eT*dA*dA*dT*d[5mC]*dT*dT*dT*dG*dG*dA*eA*e[5mC]*eT*eG*eG) [compound 227464] | 58% |
| 227468 (antisense eT*e[5mC]*eA*eT*e[5mC]*dA*dA*dT*dA*dT*d[5mC]*dT*dA*dG*d[5mC]*eT*e[5mC]*eA*eA*eT) [compound 227468] | 62% |
| 227469 (antisense e[5mC]*eT*eT*eA*eG*dA*dA*dG*dT*d[5mC]*dT*dG*dT*d[5mC]*dT*eG*eT*eG*eT*e[5mC]) [compound 227469] | 63% |
| 227475 (antisense e[5mC]*e[5mC]*eT*eG*e[5mC]*dT*dG*dG*dT*dG*dT*dA*dA*dT*dG*eT*e[5mC]*eG*e[5mC]*eT) [compound 227475] | 68% |
| 227480 (antisense eA*eT*eG*eT*eA*dA*dA*dT*dG*dT*d[5mC]*d[5mC]*dT*d[5mC]*dT*eT*eG*eG*eT*eT) [compound 227480] | 66% |
| 227481 (antisense eT*eG*eG*eT*eG*dA*dT*dG*dT*dA*dA*dA*dT*dG*dT*e[5mC]*e[5mC]*eT*e[5mC]*eT) [compound 227481] | 45% |
| 227482 (antisense eT*eT*e[5mC]*eT*eG*dT*dG*dG*dT*dG*dA*dT*dG*dT*dA*eA*eA*eT*eG*eT) [compound 227482] | 53% |
| 227483 (antisense eA*eG*eG*e[5mC]*eT*dT*dT*d[5mC]*dT*dG*dT*dG*dG*dT*dG*eA*eT*eG*eT*eA) [compound 227483] | 75% |
| 227484 (antisense eT*eG*eG*eT*eA*dA*dG*dG*d[5mC]*dT*dT*dT*d[5mC]*dT*dG*eT*eG*eG*eT*eG) [compound 227484] | 63% |
| 227488 (antisense eA*eG*eT*eT*eG*dG*dT*d[5mC]*dT*dG*dT*dG*d[5mC]*dT*d[5mC]*eA*e[5mC]*eA*eT*eA) [compound 227488] | 86% |
| 227489 (antisense eT*eG*eT*eT*e[5mC]*dA*dG*dT*dT*dG*dG*dT*d[5mC]*dT*dG*eT*eG*e[5mC]*eT*e[5mC]) [compound 227489] | 75% |
| 227490 (antisense eG*e[5mC]*eA*eT*eG*dA*dT*dT*dT*dT*dG*dT*dT*d[5mC]*dA*eG*eT*eT*eG*eG) [compound 227490] | 67% |
| 227499 (antisense eT*eA*eT*eA*eA*dA*dA*dG*dG*dG*d[5mC]*dT*dT*dT*dG*eT*eA*eA*eA*eA) [compound 227499] | 14% |
| 227500 (antisense e[5mC]*eA*eT*eA*eG*d[5mC]*dA*dG*d[5mC]*dA*dA*dA*dG*dT*dA*eG*e[5mC]*eA*eG*eA) [compound 227500] | 69% |
| 227501 (antisense eG*e[5mC]*eT*eA*eT*dT*dT*dT*dT*dG*dG*d[5mC]*dT*dA*dT*eA*eG*eA*eA*eA) [compound 227501] | 64% |

| Substance | % INHIB of human growth hormone receptor mRNA levels |
| --- | --- |
| 227502 (antisense eG*eA*eT*eT*eG*dA*dG*dG*dT*dA*dT*dT*dT*dA*dG*e[5mC]*eT*eA*eT*eT) [compound 227502] | 56% |
| 272302 (antisense eG*eA*eT*e[5mC]*e[5mC]*dA*dT*dA*d[5mC]*d[5mC]*dT*dG*dT*dA*dG*eG*eA*e[5mC]*e[5mC]*eT) [compound 272302] | 60% |
| 272303 (antisense e[5mC]*e[5mC]*eA*eG*eA*dG*dA*dT*d[5mC]*d[5mC]*dA*dT*dA*d[5mC]*d[5mC]*eT*eG*eT*eA*eG) [compound 272303] | 55% |
| 272304 (antisense eT*eG*e[5mC]*eT*eA*dA*dG*dG*dA*dT*dA*dG*d[5mC]*dT*dG*e[5mC]*eT*eG*eT*eG) [compound 272304] | 48% |
| 272305 (antisense eT*eT*eG*eT*e[5mC]*dT*dT*dT*dA*dG*dG*d[5mC]*d[5mC]*dT*dG*eG*eA*eT*eT*eA) [compound 272305] | 68% |
| 272306 (antisense eT*eT*eA*eG*eA*dA*dG*dA*dA*dT*dT*dT*dG*dT*d[5mC]*eT*eT*eT*eA*eG) [compound 272306] | 13% |
| 272307 (antisense eG*eT*eG*eA*eA*dT*dT*dT*dA*dG*dG*d[5mC]*dT*d[5mC]*d[5mC]*eT*eT*eA*eG*eA) [compound 272307] | 55% |
| 272308 (antisense eG*e[5mC]*eT*eG*eT*dA*dT*dG*dG*dG*dT*d[5mC]*d[5mC]*dT*dA*eG*eG*eT*eT*e[5mC]) [compound 272308] | 57% |
| 272309 (antisense eT*eA*eA*e[5mC]*eA*dG*d[5mC]*dT*dG*dT*dT*dT*dT*d[5mC]*d[5mC]*e[5mC]*e[5mC]*eA*eG*e[5mC]) [compound 272309] | 85% |
| 272310 (antisense eT*eT*eT*e[5mC]*eA*dT*d[5mC]*d[5mC]*dA*d[5mC]*dT*dG*dT*dA*d[5mC]*e[5mC]*eA*e[5mC]*e[5mC]*eA) [compound 272310] | 76% |
| 272311 (antisense eT*eT*eG*e[5mC]*eA*d[5mC]*dT*dA*dT*dT*dT*d[5mC]*dA*dT*d[5mC]*eA*eA*e[5mC]*eA*eG) [compound 272311] | 47% |
| 272312 (antisense eG*eG*eG*eT*eG*dG*dA*dT*d[5mC]*dT*dG*dG*dT*dT*dG*e[5mC]*eA*e[5mC]*eT*eA) [compound 272312] | 57% |
| 272313 (antisense eA*eT*eT*eG*e[5mC]*dG*dT*dG*dG*dT*dG*d[5mC]*dT*dT*d[5mC]*e[5mC]*e[5mC]*eA*eT*e[5mC]) [compound 272313] | 77% |
| 272314 (antisense eT*eA*eG*eG*eG*dT*d[5mC]*d[5mC]*dA*dT*d[5mC]*dA*dT*dT*dT*eT*e[5mC]*e[5mC]*eA*eT) [compound 272314] | 56% |
| 272315 (antisense e[5mC]*eA*eA*eT*eG*dA*dG*dT*dA*d[5mC]*dA*d[5mC]*dT*dG*dG*eA*eA*e[5mC]*eT*eG) [compound 272315] | 53% |
| 272316 (antisense eA*eA*e[5mC]*eT*e[5mC]*dG*d[5mC]*d[5mC]*dA*dT*dA*dA*dT*dT*dT*e[5mC]*e[5mC]*eA*eG*eA) [compound 272316] | 64% |
